Activity calls are given as the source filed them. No rule for the calls is given here.
Molecular target: Ubiquitin carboxyl-terminal hydrolase 8 (Homo sapiens) (UniProt P40818)
Assay: Ubiquitin-specific protease 8 inhibitors, concentration-effect, biochemical, validation of initial actives (AID 1645862);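 also: potency reflects inhibition of USP8 cleavage of a ubiquitin rhodamine substrate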
Conditions: recombinant USP8 deubiquitinase activity assay

Ubiquitin carboxyl-terminal hydrolase 8 (Homo sapiens), sequence (P40818 whole entry, looked up): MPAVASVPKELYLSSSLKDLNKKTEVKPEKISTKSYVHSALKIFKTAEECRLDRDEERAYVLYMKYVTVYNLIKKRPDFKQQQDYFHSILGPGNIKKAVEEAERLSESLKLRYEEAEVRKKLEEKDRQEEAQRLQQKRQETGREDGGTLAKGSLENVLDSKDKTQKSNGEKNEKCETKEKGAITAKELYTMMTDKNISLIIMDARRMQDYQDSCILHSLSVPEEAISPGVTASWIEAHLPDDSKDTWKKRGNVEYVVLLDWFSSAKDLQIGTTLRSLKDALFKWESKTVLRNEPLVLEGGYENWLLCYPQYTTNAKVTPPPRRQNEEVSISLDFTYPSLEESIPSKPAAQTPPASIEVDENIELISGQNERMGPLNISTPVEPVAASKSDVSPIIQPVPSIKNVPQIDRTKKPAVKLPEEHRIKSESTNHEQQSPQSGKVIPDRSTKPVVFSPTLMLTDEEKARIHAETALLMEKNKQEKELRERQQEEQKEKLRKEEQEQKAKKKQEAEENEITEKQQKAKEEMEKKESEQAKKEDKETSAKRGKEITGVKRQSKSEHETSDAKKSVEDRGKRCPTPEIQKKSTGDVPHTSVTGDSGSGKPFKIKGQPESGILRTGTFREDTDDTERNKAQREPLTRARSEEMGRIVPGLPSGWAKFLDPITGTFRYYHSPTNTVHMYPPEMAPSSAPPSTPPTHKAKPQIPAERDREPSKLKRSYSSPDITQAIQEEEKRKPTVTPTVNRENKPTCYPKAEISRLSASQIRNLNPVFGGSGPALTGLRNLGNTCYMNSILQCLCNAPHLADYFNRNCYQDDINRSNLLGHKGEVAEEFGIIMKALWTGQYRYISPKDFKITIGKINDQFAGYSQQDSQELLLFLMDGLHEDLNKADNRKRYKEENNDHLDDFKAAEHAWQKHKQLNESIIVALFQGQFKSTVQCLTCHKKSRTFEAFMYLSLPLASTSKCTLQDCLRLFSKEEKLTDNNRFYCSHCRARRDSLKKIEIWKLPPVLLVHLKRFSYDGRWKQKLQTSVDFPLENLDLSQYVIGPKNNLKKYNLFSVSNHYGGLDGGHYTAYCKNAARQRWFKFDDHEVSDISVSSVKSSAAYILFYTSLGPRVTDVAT

Row | Compound | IC50
1 | CCC(=O)Nc1nc2cc(NC(=O)Nc3cccc(C)c3)ccc2s1 | > 40 µM (inactive)
2 | COc1cccc(N2CCCN(C(=O)c3ccc4nc(C)[nH]c4c3)CC2)c1 | > 40 µM (inactive)
3 | CCn1cc2c(n1)c(=O)n(Cc1ccccc1)c(=O)n2CC(=O)NCc1ccc(C)cc1 | > 40 µM (inactive)
4 | Fc1cccc(Nc2ncnc3c2oc2ccccc23)c1 | > 40 µM (inactive)
5 | Cc1ccc(CNC(=O)c2cccc(N3C(=O)N4CCc5c([nH]c6ccccc56)[C@@]4(C)C3=O)c2)cc1 | > 40 µM (inactive)
6 | Cc1cc(Nc2cccc(Cl)c2)n2nc(-c3cccnc3)nc2n1 | > 40 µM (inactive)
7 | COc1ccc(Sc2nc3ccccc3n3cnnc23)cc1 | 32.7 µM
8 | Cc1ccc(NC(=O)Cc2nnc3c(-c4nc(C5CC5)no4)cccn23)cc1 | 18.7 µM
9 | Cc1ccc(S(=O)(=O)NCc2ccc(C(=O)NCCc3ccc(S(N)(=O)=O)cc3)cc2)cc1 | > 40 µM (inactive)
10 | Cc1ccc(S(=O)(=O)Nc2cccc(Cl)c2)cc1NC(=O)CCC(=O)c1ccc(Cl)cc1 | > 40 µM (inactive)
11 | COc1ccc(-c2nc(SCC(=O)Oc3c(C)cccc3C)n3[nH]c(=O)cc3n2)cc1 | 18 µM
12 | O=C(CN(CC(=O)NCc1ccccc1Cl)c1nc2ccccc2s1)NCc1ccccc1Cl | > 40 µM (inactive)
13 | CC1=C(C)C(N(c2ccccc2)c2ccccc2)N(CCC(C)C)C1=O (centres undefined) | 37.7 µM
14 | Cc1ccc(NC(=O)Cn2cc(C(=O)c3ccccc3)c(=O)c3cc(C)ccc32)cc1 | 39.6 µM
15 | COC(=O)c1ccc(Nc2cc(C)nc3cc(C(F)(F)F)ccc23)cc1 | > 40 µM (inactive)
16 | Cc1ccccc1-c1nc(-c2cn(CC(=O)Nc3ccccc3)cn2)no1 | > 40 µM (inactive)
17 | COc1ccc(CNC(=O)C(C)n2nc(-c3ccco3)c(-c3cc(C)no3)cc2=O)cc1 (centres undefined) | > 40 µM (inactive)
18 | Cc1cc(C)c(C#N)c(N2CCN(CCOc3ccc(Cl)cc3)CC2)n1 | > 40 µM (inactive)
19 | COc1cc(Cl)c(NC(=O)C2Cc3ccccc3N2C(=O)c2ccccc2)c(OC)c1 (centres undefined) | > 40 µM (inactive)
20 | CCn1cc2c(n1)c(=O)n(Cc1ccccc1)c(=O)n2CC(=O)Nc1ccc(C(C)C)cc1 | > 40 µM (inactive)
21 | CC(=O)N1CCc2cc(S(=O)(=O)NC(Cc3ccccc3)C(=O)Nc3cccc(Cl)c3C)ccc21 (centres undefined) | > 40 µM (inactive)
22 | COc1ccc(-c2cc3c(=O)n(CC(=O)NCc4ccccc4)ncn3n2)cc1 | > 40 µM (inactive)
23 | COc1ccc(C2/C(=C(\O)c3ccccc3)C(=O)C(=O)N2c2nc3ccc(F)cc3s2)cc1 (centres undefined) | 27.2 µM
24 | O=C(CCCCn1c(=O)[nH]c2ccccc2c1=O)Nc1cccc(Cl)c1 | > 40 µM (inactive)

Row | Compound | IC50
25 | CSc1ccc(CNC(=O)Cn2c(=O)[nH]c3c(-c4ccccc4)c[nH]c3c2=O)cc1 | > 40 µM (inactive)
26 | O=C(c1ccco1)N1CCCC1c1nc(-c2ccccc2)n[nH]1 (centres undefined) | > 40 µM (inactive)
27 | Cc1cc(C(=O)CSc2nc3ccccc3[nH]2)c(C)n1Cc1ccco1 | > 40 µM (inactive)
28 | Cc1nnc(NC(=O)C2CC(=O)N(CCc3ccc(F)cc3)C2)s1 (centres undefined) | > 40 µM (inactive)
29 | CCOC(=O)N1CCC(NC(=O)c2cc(C(=O)Nc3ccc(S(=O)(=O)N4CCCCC4)cc3)ccc2CO)CC1 | > 40 µM (inactive)
30 | O=c1c2ccccc2nc(CSc2cccc(Cl)c2Cl)n1-c1ccccc1 | > 40 µM (inactive)
31 | COc1cc2c(c(OC)c1OC)-c1ccc(NCCc3cccc(F)c3)c(=O)cc1[C@@H](NC(C)=O)CC2 | > 40 µM (inactive)
32 | CCCC(O)CCCCCCCc1cc(O)cc(O)c1C(=O)OC(CCC)CCCCCCCc1cc(O)cc(O)c1 (centres undefined) | > 40 µM (inactive)
33 | Cc1cccc(N2C(=O)/C(=C\c3cc(C#N)n(C)c3C)c3ccccc3C2=O)c1 | > 40 µM (inactive)
34 | CCOc1ccc2c(c1)c(=O)c(C(=O)c1ccccc1)cn2CC(=O)Nc1ccc(Cl)cc1 | 32.2 µM
35 | O=C(COC(=O)C(Cc1c[nH]c2ccccc12)NC(=O)c1ccccc1Cl)Nc1ccc([N+](=O)[O-])cc1C(F)(F)F (centres undefined) | > 40 µM (inactive)
36 | Nc1ccc2oc(-c3cccc(-c4nc5cc(N)ccc5o4)n3)nc2c1 | 32.9 µM
37 | COc1ccc(Cl)cc1NC(=O)Cn1c(=O)n(CCC(=O)NC2CCCC2)c(=O)c2ccccc21 | > 40 µM (inactive)
38 | CCc1ccc(NC(=O)CSc2nc3nccnc3c(=O)n2Cc2ccc(F)cc2)cc1 | > 40 µM (inactive)
39 | Cc1nn(-c2nc3ccccc3o2)c2c1C(c1cccc([N+](=O)[O-])c1)CC(=O)N2 (centres undefined) | > 40 µM (inactive)
40 | COc1ccc(C(=O)CSc2nnc(-c3cc4ccccc4o3)n2C)cc1 | > 40 µM (inactive)
41 | COC(=O)c1ccccc1NC(=O)Cn1c(=O)n(Cc2ccc(C(=O)NCc3ccco3)cc2)c(=O)c2ccccc21 | > 40 µM (inactive)
42 | CCOc1ncccc1C(=O)Nc1ccnn1Cc1ccccc1 | > 40 µM (inactive)
43 | COc1ccc(NS(=O)(=O)c2cc(NC(=O)CC(=O)c3ccc([N+](=O)[O-])cc3)ccc2Cl)cc1 | > 40 µM (inactive)
44 | Cc1ccc(Cl)cc1NC(=O)c1cc(-c2ccccn2)n[nH]1 | > 40 µM (inactive)
45 | O=c1oc2c3c(c(Cl)cc2c2c1CCCC2)OCN(Cc1ccccc1)C3 | > 40 µM (inactive)
46 | CC1=C(Cn2c3cccc(=O)c-3nc3ccccc32)CCC(C)(C)C1 | 1.71 µM
47 | Cc1ccccc1NC(=O)CSC1=NC2(CCCCC2)Nc2ccccc21 | > 40 µM (inactive)

Continued, values first:

Row | IC50 | Compound
48 | > 40 µM (inactive) | COc1ccc(NC(=O)c2cc(-c3cccnc3)n[nH]2)cc1Cl
49 | > 40 µM (inactive) | Cn1c(=O)n(CCc2ccccc2)c(=O)c2c1nc1n2CCN1Cc1ccccc1
50 | > 40 µM (inactive) | CN(C)c1ccc(S(=O)(=O)N2CCCCC2)cc1NC(=O)COc1ccccc1
51 | > 40 µM (inactive) | FC(F)(F)c1cccc(Nc2nc(-c3ccccn3)nc3ccccc23)c1
52 | 34.1 µM | CCOc1ccc(-c2noc(-c3nn(-c4cccc(OC)c4)ccc3=O)n2)cc1
53 | > 40 µM (inactive) | N=C1/C(=C/c2cn(Cc3ccccc3F)c3ccccc23)C(=O)N=C2SC(C(F)(F)F)=NN12
54 | 8.09 µM | CCCCCCCc1cc(OC(=O)c2c(CCCCCCC)cc(O)cc2O[C@@H]2O[C@H](CO)[C@@H](O)[C@H](O)[C@H]2O)cc(O)c1C(=O)O
55 | > 40 µM (inactive) | Cc1ccc(C)c(S(=O)(=O)N2CCN(c3ccc4nnc(-c5ccco5)n4n3)CC2)c1
56 | > 40 µM (inactive) | O=C(NCc1ccc(Br)cc1)c1cc(-c2cccnc2)n[nH]1
57 | > 40 µM (inactive) | CNC(=O)c1cc2nc(N(C)C)n(-c3ccc(F)cc3)c2s1
58 | 31.8 µM | O=C(O)CCCCCN1C(=O)CC(c2ccc(Cl)cc2)CC1=O
59 | > 40 µM (inactive) | COc1cccc(NC(=O)C2C3C=CC4(O3)C2C(=O)N(CCc2ccc(Cl)cc2)C4C(=O)NC2CCCCC2)c1 (centres undefined)
60 | 33.6 µM | O=C(Nc1cccc(Br)c1)c1cc(-c2cccnc2)n[nH]1
61 | > 40 µM (inactive) | COc1ccc(NC(=O)Nc2ccc(F)c(-c3nnc(-c4ccccc4)o3)c2)c(OC)c1
62 | > 40 µM (inactive) | N#Cc1cccc(NC(=O)Cn2cccc2-c2nc(-c3ccccc3)no2)c1
63 | > 40 µM (inactive) | O=c1[nH]c(C2CCN(S(=O)(=O)c3ccc(S(=O)(=O)NC4CCCCC4)cc3)CC2)nc2c1nnn2Cc1c(F)cccc1Cl
64 | > 40 µM (inactive) | O=C(CCc1ccc(S(=O)(=O)N2CCOCC2)cc1)OCC(=O)c1ccc(-c2ccccc2)cc1
65 | 16.6 µM | Brc1ccc(Nc2nc(-c3ccccn3)nc3ccccc23)cc1
66 | > 40 µM (inactive) | Cc1ccc(C2c3[nH]c4ccccc4c3C[C@H]3C(=O)N(c4ccc(C(=O)NCCc5ccccc5)cc4)C(=O)N23)cc1 (some centres undefined)
67 | 0.734 µM | Cn1c(=O)c2nc(-c3ccc(Cl)cc3)nnc2n(C)c1=O
68 | > 40 µM (inactive) | Cc1cc(NS(=O)(=O)c2ccc(NC(=O)c3ccc(N4CCCC4)c([N+](=O)[O-])c3)cc2)no1

Row | IC50 | Compound
69 | > 40 µM (inactive) | O=C(CCc1ccc(F)cc1)N1CCOC(CCc2cc(=O)[nH]cn2)C1 (centres undefined)
70 | > 40 µM (inactive) | O=C(Cn1nc(-c2ccccc2)cc(NC(=O)c2ccccc2)c1=O)Nc1ccc(F)cc1
71 | > 40 µM (inactive) | COc1ccc(OC)c(NC(=O)c2sc(-c3ccccc3)nc2C)c1
72 | > 40 µM (inactive) | O=C(Cc1ccc(-n2c(=O)c3ccccc3n(Cc3cccc(F)c3)c2=O)cc1)NC1CCCC1
73 | > 40 µM (inactive) | COc1ccc2nc(-c3ccc(NC(=O)c4cccc(OC)c4OC)cc3)cn2n1
74 | 22.6 µM | Cc1cc(=O)n2c3c(c4c(cc13)c(CO)cc(=O)n4C)OC2
75 | > 40 µM (inactive) | COc1cc(NC(=O)Cn2c(=O)n(-c3ccc(CC(=O)NC4CCCC4)cc3)c(=O)c3ccccc32)cc(OC)c1
76 | > 40 µM (inactive) | Cc1nnc2ccc(-c3ccc(NC(=O)c4ccc(Br)o4)cc3)nn12
77 | > 40 µM (inactive) | Cc1ccc2[nH]cc(S(=O)(=O)c3cc(F)cc(F)c3)c(=O)c2c1
78 | > 40 µM (inactive) | Cc1cccc(C)c1NC(=O)Cn1c(=O)n(CCCCC(=O)NCc2ccc3c(c2)OCO3)c(=O)c2ccccc21
79 | > 40 µM (inactive) | COc1cccc(NC(=O)c2oc3ccccc3c2NC(=O)COc2cccc(OC)c2)c1
80 | > 40 µM (inactive) | Cc1ccccc1Cn1c(=O)n(CC2CCC(C(=O)NC3CCCC3)CC2)c(=O)c2ccccc21 (centres undefined)
81 | 37.3 µM | Cc1[nH]nc(NC(=O)C2COc3ccccc3O2)c1-c1ccccc1 (centres undefined)
82 | > 40 µM (inactive) | CSc1cccc(NC(=O)COc2cccc3ccccc23)c1
83 | > 40 µM (inactive) | Nc1ncnc2c1ncn2[C@@H]1O[C@H](CO)C[C@@H]1O
84 | 30.7 µM | Cc1ccc2[nH]c3c(=O)n(Cc4ccc(N(C)C)cc4)cnc3c2c1
85 | > 40 µM (inactive) | COc1cccc(C2c3[nH]c4ccccc4c3C[C@@H]3C(=O)N(CC(O)c4ccccc4)CC(=O)N23)c1 (some centres undefined)
86 | > 40 µM (inactive) | CCC(C(=O)C(C)C(O)C(C)CCc1ccc(C)c(O)c1C(=O)O)C1OC(CC)(C2CCC(O)(CC)C(C)O2)CC1C (centres undefined)
87 | > 40 µM (inactive) | COc1ccc(NC(=O)CC(=O)c2ccc([N+](=O)[O-])cc2)cc1S(=O)(=O)Nc1ccc(Br)cc1
88 | > 40 µM (inactive) | COc1cc(C(=O)Nc2ccc(C#N)cc2)ccc1OCC(=O)Nc1ccccc1C(F)(F)F
89 | > 40 µM (inactive) | COc1ccccc1-c1noc(CCCC(=O)Nc2ccccc2)n1

Source: PubChem BioAssay AID1645862 (Buhrlage Lab, Dana-Farber Cancer Institute and Novartis …, 2021)
